Measurements reported in patent publication US20030165586A1, “Anti-angiogenic composition comprising ticlopidine and gingko biloba extract” (priority 2003, published 2003).

Legend:
[1] = test system: formation of blood vessels in Matrigel; assay: Matrigel plug assay (hemoglobin in bFGF/heparin Matrigel implanted in mice); type: in vivo, C57BL/6 female mice; details: 0.65 mg/mouse orally twice per day for four days; control = 100
Description: 0.4 ml portion of Matrigel each mixed with 50 ng/ml of basic fibroblast growth factor (bFGF) and 50 units of heparin were implanted by subcutaneous injection in 5-week-old C57BL/6 female mice, and a mixture of 0.65 mg ticlopidine and 0.4 mg Ginkgo biloba extract was orally administrated to each mouse twice per day for four days. Then each mouse was sacrificed and the Matrigel was excised. For comparison, the procedure was repeated using ticlopidine or Ginkgo biloba extract alone. The formation of blood vessels in Matrigel was tested by measuring the amount of hemoglobin (Hb) in the Matrigel using the Drabkin reagent kit (Sigma Chemical Co., St. Louise, Mich., USA) which contained standards of known amounts of Hb.

[2] = test system: Human umbilical vein endothelial cells (HUVECs); assay: Tube formation assay of HUVEC in Matrigel; type: cell-based; details: 50 μM ticlopidine alone; total tube area per well relative to control (100)
Description: The tube formation assay was performed as follows: 48-well plates were coated with 0.2 ml of Matrigel (BD Bioscience, Bedford, Mass., USA) and incubated at 37° C. for 1 hr. 4˜6×10^4 HUVECs resuspended in 0.4 ml of M199 medium were added to each well. Ticlopidine (Sigma Chemical Co., USA) and Ginkgo biloba extract (Hwa Il Pharmaceutical Co., LTD, Korea), a standardized extract that contained 24% flavonoid glycosides and 6% terpenoids, were added to the Matrigel. Final concentration of ticlopidine and Ginkgo biloba extract were 25 μM and 5 μg/ml, respectively. As a control, the procedure was repeated without added ticlopidine and Ginkgo biloba extract. Comparative runs were also conducted by the same procedure using ticlopidine alone (comparative run 1) or only with Ginkgo biloba extract (comparative run 2). The extent of tube formation was determined by measuring the total tube area per well relative to that of the control using image analysis program Image-Pro Pluso (Media Cybernetics, USA).

SMILES: Clc1ccccc1CN1CCc2sccc2C1 [Ticlopidine, 5-[(2-chlorophenyl)methyl]-4,5,6,7-tetrahydrothieno[3,2-C]pyridine]
- Hemoglobin (%) [1]: 95%
- Total Tube Area % [2]: 91%
